Source: ChEMBL document CHEMBL3112448, “Selective COX-1 inhibition as a target of theranostic novel diarylisoxazoles” (Eur J Med Chem, 2014)
The source made the active and inactive calls. No cut-off for these calls is given here.

These compounds were tested against T1, Prostaglandin G/H synthase 1 (Ovis aries) (UniProt P05979). Details: at 50 µM.
T1 sequence (whole entry): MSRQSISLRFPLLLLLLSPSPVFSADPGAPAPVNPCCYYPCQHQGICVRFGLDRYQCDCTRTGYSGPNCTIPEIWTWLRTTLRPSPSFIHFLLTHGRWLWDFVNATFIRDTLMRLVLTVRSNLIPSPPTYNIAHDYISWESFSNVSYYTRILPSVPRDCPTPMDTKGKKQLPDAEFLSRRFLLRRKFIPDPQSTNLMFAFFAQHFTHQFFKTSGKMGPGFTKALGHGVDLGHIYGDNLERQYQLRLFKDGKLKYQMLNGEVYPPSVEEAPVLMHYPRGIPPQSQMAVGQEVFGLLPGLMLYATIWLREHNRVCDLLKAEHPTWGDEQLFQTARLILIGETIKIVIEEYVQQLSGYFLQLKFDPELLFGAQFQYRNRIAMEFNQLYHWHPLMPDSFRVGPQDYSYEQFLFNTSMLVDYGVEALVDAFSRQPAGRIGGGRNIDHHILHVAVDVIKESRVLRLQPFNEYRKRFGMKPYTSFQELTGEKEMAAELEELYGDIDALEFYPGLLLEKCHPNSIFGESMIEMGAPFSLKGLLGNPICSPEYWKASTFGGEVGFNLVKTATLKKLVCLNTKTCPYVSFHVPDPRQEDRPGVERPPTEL
Description: Inhibition of ovine COX1 at 50 uM by peroxidase activity-based colorimetric assay

SMILES	inhibition
COC(=O)Cc1onc(-c2ccc(Cl)o2)c1-c1ccccc1	inactive
Cc1onc(-c2ccc(Cl)o2)c1-c1ccccc1	69%
CC(=O)N(C(C)=O)c1onc(-c2ccc(Cl)o2)c1-c1ccccc1	25%
Nc1onc(-c2ccc(Cl)o2)c1-c1ccccc1	94%
COc1ccccc1-c1noc(C(F)(F)F)c1-c1ccccc1	39%
CCc1onc(-c2ccc(Cl)o2)c1-c1ccccc1	55%
O=C(O)Cc1onc(-c2ccc(Cl)o2)c1-c1ccccc1	32%
CCCc1onc(-c2ccc(Cl)o2)c1-c1ccccc1	17%
CN(C)c1onc(-c2ccc(Cl)o2)c1-c1ccccc1	inactive
Cc1onc(-c2ccc(Cl)o2)c1-c1ccc(N)cc1	78%
Cc1onc(-c2ccc(Cl)o2)c1-c1ccc([N+](=O)[O-])cc1	inactive
COc1ccccc1-c1noc(C)c1-c1ccccc1	61%
N#CCc1onc(-c2ccc(Cl)o2)c1-c1ccccc1	12%
Clc1ccc(-c2noc(CBr)c2-c2ccccc2)o1	35%

What follows are compounds tested against Prostaglandin G/H synthase 1 (Homo sapiens, UniProt P23219) (assay: Inhibition of COX1 in human OVCAR3 cells using [14C]arachidonic acid as substrate preincubated for 30 mins before substrate addition by radioactivity scanning technique). Details: not given.
Assay type: cell-based, OVCAR-3

Prostaglandin G/H synthase 1, sequence (P23219 whole entry): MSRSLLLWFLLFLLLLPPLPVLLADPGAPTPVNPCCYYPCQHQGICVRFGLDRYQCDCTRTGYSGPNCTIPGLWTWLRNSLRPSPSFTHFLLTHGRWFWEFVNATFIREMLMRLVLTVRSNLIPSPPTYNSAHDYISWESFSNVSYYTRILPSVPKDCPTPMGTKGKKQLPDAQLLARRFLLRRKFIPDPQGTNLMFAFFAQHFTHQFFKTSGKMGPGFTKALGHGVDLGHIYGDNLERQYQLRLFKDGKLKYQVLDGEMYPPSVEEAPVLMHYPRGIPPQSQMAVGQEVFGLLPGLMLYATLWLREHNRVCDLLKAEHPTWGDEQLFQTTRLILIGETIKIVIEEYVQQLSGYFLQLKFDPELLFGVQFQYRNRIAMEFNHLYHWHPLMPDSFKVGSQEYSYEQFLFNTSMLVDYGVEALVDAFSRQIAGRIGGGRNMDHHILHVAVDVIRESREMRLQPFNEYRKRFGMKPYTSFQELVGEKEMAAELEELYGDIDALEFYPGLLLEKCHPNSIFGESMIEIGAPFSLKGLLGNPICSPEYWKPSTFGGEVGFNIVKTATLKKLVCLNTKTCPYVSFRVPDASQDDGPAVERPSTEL

SMILES	IC50 [nM]
Nc1onc(-c2ccc(Cl)o2)c1-c1ccccc1	580
